{"source": "patent US6693192B1", "about": "“Hypolipidemic and antioxidant morpholine derivatives” (Elpen S.A., priority 1999, dated 2004)", "system": "hyperlipidemia induced by the Triton WR 1339 in rats", "experiment": "Hypolipidemic activity: inhibition of hyperlipidemia induced by Triton WR 1339 in rats", "assay_type": "in vivo, rat", "details": "male Fischer rats, Triton WR 1339 200 mg/Kg i.p., dose 56 μmol/kg ip, plasma after 24 hours", "description": "The hypocholesterolemic and hypolipidemic activity of the synthesised compounds was performed by the inhibition of the hyperlipidemia induced by the Triton WR 1339 in rats. Triton WR 1339 as an intraperitoneal (i.p.) injection acts due to induction of HMG-CoA reductase. […] After 24 hours, blood was taken from the celiac aorta and collected to heparinised tubes.", "note": "Marks after values point to notes of the source that are not given here.", "data": [{"smiles": "CC(C)(Sc1cc(C(C)(C)C)c(O)c(C(C)(C)C)c1)Sc1cc(C(C)(C)C)c(O)c(C(C)(C)C)c1", "note": "[Probucol]", "values": [{"measurement": "Percent decrease compared to controls, LDL (plasma Low Density Lipoprotein)", "result": "18^NS %"}, {"measurement": "Percent decrease compared to controls, TC (plasma Total Cholesterol)", "result": "18* %"}, {"measurement": "Percent decrease compared to controls, TG (plasma Triglyceride)", "result": "11^NS %"}]}]}
